Measurements reported in US9222016B2, “Compound having fluorescent chromophore, ion concentration sensor including compound, reagent including compound, reagent kit provided with reagent, precursor of compound, and method for synthesizing compound” (National University Corporation Hokkaido University, priority 2011, dated 2015).

What was measured:
[1] = Fluorescence spectrum measurement of triazapentalenes (Example 3); assay type: physicochemical; conditions: for λem (emission wavelength): excitation at absorption maximum; for φr (relative fluorescence quantum yield): dichloromethane, standard 9,10-bis(phenyl ethynyl)anthracene (0.96)
Procedure: The fluorescence spectrum of various triazapentalenes that have been synthesized by the same method as described in Example 1 and Example 2 was measured. A method for measurement will be specifically described below.
As triazapentalenes, compounds with the substituent group being a phenyl group, methoxyphenyl group, 2-cyanophenyl group, methoxycarbonylphenyl group, methyl ester group, diphenyl group, 3-cyanophenyl group, and nitrophenyl group were used.
(§1) Each of the above compounds was made into solution with concentration shown in Table 2 using dichloromethane as a solvent. […] The concentration of a sample solution was adjusted such that the intensity (Abs.) of absorption maximum wavelength was 0.100±0.005, and using a spectrophotometer (manufactured by Hitachi High-Technologies Corporation, U-3500), each fluorescence spectrum was measured with excitation wavelength (λex)=326 nm to 412 nm that was equal to absorption maximum wavelength. The fluorescence quantum yield was determined using 9,10-bis(phenyl ethynyl)anthracene (absolute fluorescence quantum yield=0.96) as a standard substance.
In FIG. 1 and Table 2, with regard to a substituent group, Ph represents a phenyl group, Me represents a methyl group, CO2Me represents a methyl ester group, OMe represents a methylalkoxy group, and CN represents a cyano group. Further, in Table λex represents excitation wavelength, ε represents a molar extinction coefficient, λem represents emission wavelength, φr represents a relative fluorescence quantum yield using 9,10-bis(phenyl ethynyl)anthracene (absolute fluorescence quantum yield=0.96) as a standard, and “−” represents no measurement data available.

[2] = Maximum absorption wavelength, maximum fluorescence wavelength and fluorescence quantum yield (Example 6); assay type: physicochemical; conditions: same manner as Example 3
Procedure: as §1
For each of the compounds shown in Table 3, the maximum absorption wavelength (λabs^max), maximum fluorescence wavelength (λem^max), and fluorescence quantum yield (ΦF) were measured. Further, the Hammett constant (σp) of substituent group was together described in Table 3. In Table 3, “-” represents no measurement data available. The measurement of the absorption wavelength, fluorescence wavelength, and fluorescence quantum yield was carried out in the same manner as described in Example 3. Here, a method of synthesizing compounds of 1o^a and 1r will be later described in Example 8. Compounds of 1e, 1n, 1f, 1g, 1l, 1k, 1h, and 1m, which are shown in Table 3 were synthesized by the method and condition described in Examples 1 to 2. Further, the compound 1a shown in Table 3 was synthesized under the under the same condition as in Example 1 and Example 2 except that a CO2CH3 part in the chemical formula 13 of the reaction formula (5) was replaced with a hydrogen atom. Thereby, the compound 1a having a triazapentalene backbone whose R^5 position was bound with the hydrogen atom was obtained.

[3] = substituent at R^5; cited from earlier work
[4] = standard substance; cited from earlier work
[5] = Solvatochromic fluorescence of triazapentalenes in various solvents (Example 4); assay type: physicochemical; conditions: dichloromethane, acetonitrile, benzene
Procedure: The fluorescence of a triazapentalene compound whose substituent group was -PhCN was measured in various solvents. A method for measurement will be specifically described below.
As solvents, dichloromethane (manufactured by Junsei Chemical Co., Ltd.), acetonitrile (manufactured by Kanto Chemical Co., Inc.), benzene (manufactured by Nacalai Tesque, Inc.), and acetone (manufactured by Nacalai Tesque, Inc.) were individually used.
Each of the triazapentalene compound whose substituent group was -PhCN was dissolved in the above solvent. With regard to the concentration of each solution, the concentration of solution with dichloromethane being used as the solvent was 5.81×10^−6 mol/L, the concentration of solution with acetonitrile being used as the solvent was 3.65×10^−6 mol/L, the concentration of solution with benzene being used as the solvent was 5.43×10^−6 mol/L, and the concentration of solution with acetone being used as the solvent was 6.63×10^−6 mol/L. Using a […] (manufactured by Hitachi High-Technologies Corporation, F-4500), the ultraviolet absorption spectrum was measured, and the absorption maximum wavelength (λmax) was determined to be 382 nm. […] The fluorescence quantum yield was determined using 9,10-bis(phenyl ethynyl)anthracene (absolute fluorescence quantum yield=0.96) as a standard substance.

[6] = Fluorescence of disubstituted product (Example 7); assay type: physicochemical; conditions: CH2Cl2 solution, excitation wavelength 370 nm
From the text: Disubstituted products other than the disubstituted product represented by the chemical formula 20 are synthesized by the same method as the disubstituted product represented by the chemical formula 20. The numerical values in Table 4 and Table 5 were obtained in CH2Cl2 solution under a condition of an excitation wavelength of 370 nm

Compound | ε (molar extinction coefficient) ([1]; dichloromethane solution) | λex (excitation wavelength, equal to absorption maximum wavelength λmax) ([1]; dichloromethane solution) [nm] | λem (emission wavelength) ([1]; dichloromethane solution) [nm] | φr (relative fluorescence quantum yield) [1] [%] | λabs^max (maximum absorption wavelength) [2] [nm] | λem^max (maximum fluorescence wavelength) [2] [nm] | φF (fluorescence quantum yield) [2] | Hammett σP of substituent group [3] | absolute fluorescence quantum yield [4] | fluorescence intensity (FIG. 1) ([1]; dichloromethane solution) | absorption maximum wavelength (λmax) ([5]; acetone solutions) [nm] | solvatochromism of fluorescence spectrum (FIG. 2) ([5]; acetone, λex 382 nm) | λabs (absorption wavelength) [6] [nm] | λem (fluorescence wavelength) [6] [nm] | φF (quantum yield) [6]
COc1ccc(-c2cn3ccc[n+]3n2C)cc1 [Compound 1n] | 5.70 10^3 cm − M^−1 | 330 | 413 | 6.2 | 330 | 413 | 0.062 | −0.28 |  |  |  |  |  |  | 
C(#Cc1c2ccccc2c(C#Cc2ccccc2)c2ccccc12)c1ccccc1 [9,10-bis(phenylethynyl)anthracene] |  |  |  |  |  |  |  |  | 0.96 |  |  |  |  |  | 
Cn1c(-c2cccc(C#N)c2)cn2ccc[n+]12 |  | 330 | 481 |  |  |  |  |  |  |  |  |  |  |  | 
Cn1c(-c2ccc([N+](=O)[O-])cc2)cn2ccc[n+]12 [Compound 1m] |  | 412 | 556 | 16 | 412 | 556 | 0.16 | 0.81 |  |  |  |  |  |  | 
COC(=O)c1ccc(-c2cn3ccc[n+]3n2C)cc1 [Compound 1k] | 3.02 10^3 cm − M^−1 | 376 | 510 | 51 | 376 | 510 | 0.51 | 0.47 |  |  |  |  |  |  | 
Cn1c(-c2ccc(C#N)cc2)cn2ccc[n+]12 [Compound 1h] | 2.85 10^3 cm − M^−1 | 381 | 509 | 18 | 381 | 509 | 0.18 | 0.71 |  | stronger fluorescence intensity | 382 | significant solvatochromism was observed | 381 | 509 | 0.18
Cn1c(-c2ccccc2)cn2ccc[n+]12 [Compound 1f] | 3.82 10^3 cm − M^−1 | 326 | 419 | 3.0 |  |  |  | 0.00 |  |  |  |  |  |  | 
